Measurements as given in PMC6792352, “Limited Chemical Structural Diversity Found to Modulate Thyroid Hormone Receptor in the Tox21 Chemical Library” (Environmental Health Perspectives, 2019).
Where a name gives a salt, the structure may show the parent alone.

Experiment: in vitro
Conditions: rat, gh3-tre-luc cells

| SMILES | CC50 at 24 h (AC50 (uM) modified / 1000) [µM] | further results |
| --- | --- | --- |
| Cc1cc(C)c(S(=O)(=O)O)cc1N=Nc1cc(S(=O)(=O)O)c2ccccc2c1O [FD&C Red 4] | 33.6 |  |
| O=Cc1cccc([N+](=O)[O-])c1 [3-Nitrobenzaldehyde] | > 90 |  |
| CCC(=O)OC [Methyl propanoate] | > 90 |  |
| OCC(CBr)(CBr)CBr [3-Bromo-2,2-bis(bromomethyl)propanol] | > 90 |  |
| NC(=O)CCCCC1CCSS1 (stereo not drawn) [alpha-Lipoic acid amide] | > 50 |  |
| Cc1cc(C)c(C)c(C)c1 [1,2,3,5-Tetramethylbenzene] | > 90 |  |
| Cc1cc(C)cc(O)c1 [3,5-Dimethylphenol] | > 90 |  |
| CCCCCCCCCC(C)=O [2-Undecanone] | > 90 |  |
| C[n+]1ccn(Cc2ccccc2)c1 [1-Benzyl-3-methylimidazolium chloride] | > 90 |  |
| CCC(=O)OCC(=O)[C@@]1(OC(=O)CC)[C@@H](C)C[C@H]2[C@@H]3CCC4=CC(=O)C=C[C@]4(C)[C@@]3(Cl)[C@@H](O)C[C@@]21C [Beclazone] | > 50 |  |
| O=C(O)Cn1c(C(=O)Nc2nc(-c3ccccc3Cl)cs2)cc2ccccc21 [Lintitript] | > 50 |  |
| OC1CCCCCCCCCCC1 [Cyclododecanol] | > 90 |  |
| NC(Cc1ccc(Cl)cc1)C(=O)O (stereo not shown) [Fenclonine] | > 50 |  |
| O=[N+]([O-])c1cc[n+]([O-])cc1 [4-Nitropyridine-1-oxide] | > 90 |  |
| Cn1nnnc1SCC1=C(C(=O)O)N2C(=O)[C@@H](NC(=O)[C@H](O)c3ccccc3)[C@H]2SC1 [Cefamandole sodium] | > 20 |  |
| CC(=O)OCC(=O)[C@@]1(O)[C@H](C)C[C@H]2[C@@H]3C[C@H](F)C4=CC(=O)C=C[C@]4(C)[C@H]3[C@@H](O)C[C@@]21C [Paramethasone acetate] | > 50 |  |
| Cn1c(=O)cc(Oc2ccc(F)cc2F)c2cnc(NCC(C)(C)O)nc21 [PharmaGSID_48507] | > 90 |  |
| CCCCCCCCCCCCCCCC(=O)NCCO [Palmitoylethanolamide] | > 50 |  |
| O=[N+]([O-])c1c(Cl)c(Cl)cc(Cl)c1Cl [2,3,5,6-Tetrachloronitrobenzene] |  | CC50 at 24 h (AC50 (uM) modified / 1000, Tox21_110001=Tox21_400013, viability, 1 nM T3 present, 24 h): > 90 µM |
| COc1cccc2c1cc([N+](=O)[O-])c1c(C(=O)O)cc3c(c12)OCO3 [Sodium aristolochate-I] | 5.9 |  |
| CC1=CC[C@H]2C[C@@H]1C2(C)C [(-)-alpha-Pinene] | > 90 |  |
| O=C(O)c1ccc(Cl)c(Cl)c1 [3,4-Dichlorobenzoic acid] | > 90 |  |

| SMILES | CC50 at 24 h (AC50 (uM) modified / 1000) [µM] | further results |
| --- | --- | --- |
| CCC(=O)Nc1ccc(O)cc1 [Parapropamol] | > 50 |  |
| CC(=O)OCCC1CCCCC1 [2-Cyclohexylethyl acetate] | > 90 |  |
| NCC(O)c1cccc(O)c1 (stereo not shown) [Norfenefrine hydrochloride] | > 50 |  |
| CC(C)(CO)COC(=O)C(C)(C)CO [3-Hydroxy-2,2-dimethylpropyl 3-hydroxy-2,2-dimethylpropanoate] | > 90 |  |
| CC(=O)OC(C)C[N+](C)(C)C (stereo not shown) [Methacholine chloride] | > 20 |  |
| CC(C)[C@H](Nc1ccc(C(F)(F)F)cc1Cl)C(=O)OC(C#N)c1cccc(Oc2ccccc2)c1 (stereo partly shown) [Fluvalinate] | > 90 |  |
| CCNc1nc(NC(C)C)nc(SC)n1 [Ametryn] | > 90 |  |
| O=C1c2ccccc2C(=O)N1CCc1noc(-c2ccc(CN3CCCCCC3)s2)n1 [PharmaGSID_48172] | > 80 |  |
| CCCCC/C=C\C=C\C(=O)OCC [Ethyl (2E,4Z)-deca-2,4-dienoate] | 29.3 |  |
| c1ccc2c(c1)ccc1c3ccccc3ccc21 [Chrysene] | > 40 |  |
| O=C(O)c1ccccc1O [Sodium salicylate] | > 90 |  |
| O=c1[nH]ncc2ccccc12 [1(2H)-Phthalazinone] | > 90 |  |
| CC(C)CC(C)(N)C#N (stereo not shown) [2-Amino-2,4-dimethylpentanenitrile] | > 90 |  |
| CCN(CC)CCOC(=O)C1(c2ccccc2)CCCC1 [Caramiphen edisylate] | 43.2 |  |
| CC1CCCC(=O)C1=O (stereo not shown) [3-Methylcyclohexane-1,2-dione] | > 90 |  |
| CC(=O)c1cccc([N+](=O)[O-])c1 [3-Nitroacetophenone] | > 90 |  |
| C[C@@H]1[C@@H]2Cc3ccc(O)cc3[C@@]1(C)CCN2CCc1ccccc1 [(+)-Phenazocine hydrobromide] |  | CC50 at 24 h (AC50 (uM) modified / 1000, Tox21_110001=Tox21_112834, viability, 1 nM T3 present, 24 h): 67.4 µM |
| N#CCc1ccc(Cl)cc1Cl [(2,4-Dichlorophenyl)acetonitrile] | > 90 |  |
| C[C@@H](c1ncncc1F)[C@](O)(Cn1cncn1)c1ccc(F)cc1F [Voriconazole] | > 50 |  |
| CN1CCN(C(=O)O[C@H]2c3nccnc3C(=O)N2c2ccc(Cl)cn2)CC1 [Eszopiclone] | > 50 |  |
| OCCOCCO [Diethylene glycol] | > 90 |  |
